The values below come from patent US20060122153A1, “Antineoplastic ether lipid compounds with modifications at the sn-2 carbon” (priority 2003, published 2006).

“And” between values parts separate entries of the source, which are not always exact repeats. Identical values can stand only once.

The test system of one assay is U937. Put plainly: In vitro growth inhibition (GI50), cell growth assay. The format is cell-based, human. The following applies: U937 tumor cell line, 3 days. Here is the method:
After 3 days of incubation, cell growth was determined.
To determine the Growth Inhibition in the suspension cell lines, cell numbers were directly counted instead of using the SRB assay which determines the total cell protein. One day prior to the drug treatment, 40,000 cells per well were seeded into 24-well plates in a volume of 0.5 mL. Stock solutions were diluted with complete medium to twice the desired final concentrations, and then 0.5 mL aliquots of each dilution were added to the designated wells. After 3 days incubation, cell growth was determined by counting cell number using a coulter counter (Z-M, coulter). Cell counts were-also taken at time 0 and subtracted from the test results to give net growth.

A further assay concerns HT29. As to the kind of experiment: In vitro growth inhibition (GI50), SRB assay. The following applies: HT29 tumor cell line, 3 days. The assay is classed as cell-based, human. The text has this:
(§1) The following cell lines were selected from the cell bank for screening and GI50 studies: MCF-7: human breast tumor, MCF-7/ADR: MCF-7 adriamycin resistant subline, HT-29: human colon carcinoma, A-549: human non-small cell lung cancer, NIH-3T3: mouse Swiss embryo fibroblast and WI-38: human lung fibroblast, SKMEL-28: human melanoma, Lewis Lung: mouse lung carcinoma, DU-145: prostate carcinoma, B16F10: mouse melanoma, L1210: murine lymphocytic leukemia, P-388: murine leukemia, U-937: human histolytic lymphoma. Except HT-29, WI-38, NIH-3T3 and Lewis Lung which were obtained from the American Type Culture Collection (Rockville, Md.) all the other cell lines were obtained from National Cancer Institute—Frederick Research Facility (Frederick, Md.). All the cell lines were grown in RPMI-1640 medium containing 10% fetal bovine serum (FBS) except WI-38 and DU-145 which were grown in EMEM+10% FBS at 37° C., 5% CO2 and 100% humidity and NIH-3T3, Lewis Lung, B16F10 and L1210 which were grown in DMEM containing 10% FBS (10% HS for L1210). All the adherent cell lines were detached from the culture flasks by addition of 2-3 ml of 0.05% trypsin-EDTA. Thereafter, trypsin was inactivated by addition of 10 mL of 10% serum-containing RPMI-1640 medium. Cells were separated into a single-cell suspension by gentle pipetting action. Depending on the cell type, […] to 10,000 cells were plated onto 96-well plates a day prior to the drug treatment, in a volume of 100 μl per well.
(§2) The test compounds were made in-house and the compounds were dissolved PBS or saline at a stock concentration of approximately 20 mM, which is 400 times the desired final maximum test concentration. The stock solutions were then diluted with complete medium to twice the desired final concentration. 100 μl aliquots of each dilution was then added to the designated wells. After 3 days of incubation, cell growth was determined.
(§3) The SRB assay was performed as described by Monks, A., Scudiero, D., Skehan, P., Shoemaker, R., Paull, K., Vistica, D., Hose, C., Langley, J., Cronise, P., and Vaigro-Wolff, A. Feasibility of a high-flux anticancer drug screen using a diverse panel of cultured human tumo-r cell lines. J Natl Cancer Inst, 83: 757-766, 1991 with minor modifications. Following drug treatment, cells were fixed with 50 μl of cold 50% (wt/vol) trichloroacetic acid (TCA) for 60 minutes at 4° C. The supernatant was discarded, and the plates were washed six times with deionized water and then air dried. The precipitate was stained with 100 μl SRB solution (0.4% wt/vol in 1% acetic acid) for 10 minutes at room temperature, and free SRB was removed by washing three times with 1% acetic acid, and the plates were then air dried. Bound SRB was solubilized with Tris buffer (10 mM), and the ODs were read using an automated plate reader (Bio-Rad, Model 3550-UV) at 490 nm. Background values were subtracted from the test data, and the data was calculated as a % of control. […] Percentage growth was calculated as described by, Peters, A. C., Ahmad, I., Janoff, A. S., Pushkareva, M. Y., and Mayhew, E. Growth Inhibitory effects of liposome-associated 1-o-octadecyl-2-o-methyl-sn-glycero-3-phosphocholine. Lipids, 32:1045-1054, 1997. The raw optical density data Was imported into an Excel spreadsheet to determine dose responses. […] By varying drug concentration,-dose response curves were generated and the GI-50 values were calculated. The GI50 values for each experiment were calculated using data obtained from three duplicate wells on two separate plates.
(§4) For growth inhibitory evaluation, we used five human tumor cell lines (U937; HT29; A549; MCF7; MCF7/ADR) and two normal fibroblast cell lines (NIH-3T3, murine; WI-38, human).
(In SRB staining, fixed cells bind dye roughly in proportion to their protein.)

A further assay deals with MCF7/ADR. As to the kind of experiment: In vitro growth inhibition (GI50), SRB assay. The format is cell-based, human. The following applies: MCF7/ADR tumor cell line, 3 days.
Source text: as §1, §2, §3, §4

A further assay has as its system MCF7. Put plainly: In vitro growth inhibition (GI50), SRB assay. The assay is classed as cell-based, human. The following applies: for GI50: MCF7 tumor cell line, 3 days; for effect on MCF7 growth compared to ET-18-OCH3 (in words): separate in-house study, Table 3.
Source text: as §1, §2, §3, §4

The subject of another assay is A549. As to the kind of experiment: In vitro growth inhibition (GI50), SRB assay. The following applies: A549 tumor cell line, 3 days. The format is cell-based, human.
Source text: as §1, §2, §3, §4

The subject of assay [1] is DEVDase activity (Caspase 3) in Jurkat T cells. Put plainly: DEVDase activity in Jurkat T cells. The assay is classed as cell-based. As to conditions: for % L-ET18OCH3 (DEVDase, 6 hrs): Jurkat T cells; for DEVDase activity compared to ET-18-OCH3 (in words): Jurkat T cell line. As to the method:
Suspension cells were seeded at density 3.2×10^5 cells per mL in RPMI-1640 medium (Bio-Whittaker) supplemented with 10% heat inactivated FBS (Bio-Whittaker). Cells were pre-incubated overnight prior to treatment with the ether lipid compounds of the invention. At treatment time cell density was 5×10^5 cells per mL. Cells were incubated with the ether lipid compounds of the invention for various periods of time, usually 6 hours. Cells were collected, washed with 1×DPBS and resuspended in 110 μl of Buffer A (10 mM BEPES-KOH, pH 7.4, 2 mM EDTA, 0.1% CHAPS, 5 mM DTT, 1:100 dilution of protease inhibitors cocktail (Sigma)-DTT and protease inhibitors should be added just before use). After 10 min incubation on ice in order to lyse cells, samples were frozen on dry ice/ethanol and kept at −20° C. until analysis.
At the time of analysis of DEVDase activity frozen pellets were kept on ice until thawed and after vigorous vortexing samples were centrifuged at 14,000 rpm for 6 min.; Supernatant was transferred into another tube and 2 μl, in triplicates, were used for protein measurement using Bradford reagent (Bio-Rad).
Measurement of DEVDase activity was carried out in 100 μl volume, where 10 μg of protein was delivered in 50 μl of Buffer A and 40 μM of substrate Ac-DEVD-AMC was also delivered in 50 μl of Buffer A. All measurements were done in triplicates. Reaction was carried out for 1 hour and generation of fluorescent product of reaction (aminomethylcoumarin) was measured by reading fluorescence at 1em 460 nm (1ex 360 nm). Changes in DEVDase activity were calculated after subtraction of background fluorescence of substrate incubated without proteins, and were expressed as percent of control (DEVDase activity in untreated cells). Average of DEVDase activity, calculated from few independent experiments, was used to calculate percent of L-ether lipid-induced DEVDase activity.

As to `CCCCCCCCCCCCCCCCCCOCC(COP(=O)([O-])OCC[N+](C)(C)C)OC` [D-ET18OCH3, 1-O-octadecyl-2-O-methyl-glycerophosphocholine, reference compound], the GI50 (commonly the concentration at which growth is held to half of that of the control) in the assay on U937 amounted to 1.4 µM; with HT29, 5.1 µM; in the assay on MCF7/ADR it was 25.1 µM; in the assay with MCF7, 14.6 µM; in the assay on A549, 8 µM. The “% L-ET18OCH3 (DEVDase, 6 hrs)” value was found to be 79.3 ± 9.7% in assay [1] (10 μM ether lipid), 89.2 ± 12.2% in assay [1] (20 μM ether lipid) and 92.1 ± 11.8% in assay [1] (30 μM ether lipid).
On to `CCCCCCCCCCCCCCCCCCOC[C@@H](COP(=O)([O-])OCC[N+](C)(C)C)OS(C)(=O)=O` [1a′S], for which the GI50 is 1.4 µM in the assay with U937; 2.6 µM in the assay with HT29; 39 µM in the assay on MCF7/ADR; 31.3 µM in the assay with MCF7; 9.3 µM with A549. Moreover, in the assay on MCF7, the “effect on MCF7 growth compared to ET-18-OCH3 (in words)” value is on record as “appeared worse”. The “% L-ET18OCH3 (DEVDase, 6 hrs)” value was 58.9 ± 9.1% in assay [1] (10 μM ether lipid), 55.5 ± 8.3% in assay [1] (20 μM ether lipid) and 61.3 ± 9.1% in assay [1] (30 μM ether lipid). Besides, the “DEVDase activity compared to ET-18-OCH3 (in words)” value in assay [1] is “less DEVDase activity than ET-18-OCH3”.
Regarding `CCCCCCCCCCCCCCCCCCOCC(COP(=O)([O-])OCC[N+](C)(C)C)OS(C)(=O)=O` (stereo not shown) [Compound 1aR], the GI50 was 1.4 µM with U937; 2.1 µM and 2.3 µM with HT29; above 40 µM with MCF7/ADR; 24.3 µM and 26.4 µM in the assay with MCF7; 6 µM and 6.6 µM with A549. Besides, the “effect on MCF7 growth compared to ET-18-OCH3 (in words)” value in the assay with MCF7 is “appeared worse”. For the same molecule, the entries for the “% L-ET18OCH3 (DEVDase, 6 hrs)” value in assay [1] (10 μM ether lipid), in assay [1] (20 μM ether lipid) and in assay [1] (30 μM ether lipid) were 56.6 ± 8.3%, 52.4 ± 8.6% and 51.6 ± 8.1%, respectively. Further, the “DEVDase activity compared to ET-18-OCH3 (in words)” value in assay [1] is recorded as “less DEVDase activity than ET-18-OCH3”.
